In patent US8987314B2, “Amide, urea or sulfone amide linked benzothiazole inhibitors of endothelial lipase” (Bristol-Myers Squibb Company, priority 2012, dated 2015):
pIC50: −log10 of the molar value.

Tests used:
Endothelial lipase (EL) = Endothelial lipase (EL) (Homo sapiens (Human), UniProt Q9Y5X9); experiment: EL assay: endothelial lipase activity with fluorescent substrate A10070 in DMPG vesicles; assay type: biochemical
Method in brief: (§1)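 Vesicles prepared: A10070 dried with DMPG, resuspended in HEPES pH 8.0/NaCl/EDTA, sonicated on ice. Enzyme incubated with compound 30 min at 37° C. Reaction started with 1:10 diluted vesicles. Fluorescence (490/530 nm) followed 60 min; slope from 300–900 secs gives rate.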

hepatic lipase (HL) = hepatic lipase (HL) (Homo sapiens (Human), UniProt P11150); experiment: HL assay: hepatic lipase activity with fluorescent substrate A10070 in DMPG vesicles; assay type: biochemical
Method in brief: as §1

Endothelial lipase (EL), sequence (Q9Y5X9 21-500): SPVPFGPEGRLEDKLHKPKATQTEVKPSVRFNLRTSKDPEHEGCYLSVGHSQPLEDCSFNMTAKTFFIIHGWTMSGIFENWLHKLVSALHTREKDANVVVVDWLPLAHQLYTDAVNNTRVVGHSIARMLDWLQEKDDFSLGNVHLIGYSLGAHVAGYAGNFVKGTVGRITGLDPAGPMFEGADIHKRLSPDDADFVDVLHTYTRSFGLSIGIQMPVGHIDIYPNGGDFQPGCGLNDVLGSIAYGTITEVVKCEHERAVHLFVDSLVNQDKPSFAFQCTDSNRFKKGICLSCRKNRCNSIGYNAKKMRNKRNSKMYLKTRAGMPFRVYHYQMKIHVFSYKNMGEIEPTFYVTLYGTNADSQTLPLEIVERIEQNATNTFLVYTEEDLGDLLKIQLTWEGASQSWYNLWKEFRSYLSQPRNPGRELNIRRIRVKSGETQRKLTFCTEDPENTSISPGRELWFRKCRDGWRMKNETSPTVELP
hepatic lipase (HL), sequence (P11150 23-499, species assumed): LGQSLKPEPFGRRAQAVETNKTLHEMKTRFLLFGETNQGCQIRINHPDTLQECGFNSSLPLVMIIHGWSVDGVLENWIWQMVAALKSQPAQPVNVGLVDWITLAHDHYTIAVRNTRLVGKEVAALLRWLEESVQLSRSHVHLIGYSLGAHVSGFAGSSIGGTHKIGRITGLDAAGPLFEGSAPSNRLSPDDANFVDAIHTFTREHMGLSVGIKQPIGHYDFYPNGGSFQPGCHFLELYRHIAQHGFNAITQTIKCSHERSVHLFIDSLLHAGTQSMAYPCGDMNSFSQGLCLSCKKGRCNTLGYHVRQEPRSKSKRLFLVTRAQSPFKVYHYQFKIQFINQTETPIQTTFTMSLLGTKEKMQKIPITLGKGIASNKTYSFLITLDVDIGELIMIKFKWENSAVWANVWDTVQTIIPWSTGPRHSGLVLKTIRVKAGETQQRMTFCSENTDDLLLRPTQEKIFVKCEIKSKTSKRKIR

Row | Compound | pIC50 (Endothelial lipase (EL)) | pIC50 (hepatic lipase (HL))
1 | CC(C)(C)OC(=O)n1ccc(-c2ccc3nc(C(C(=O)NCCS(N)(=O)=O)S(C)(=O)=O)sc3c2)c1 (stereo not drawn) [Example B220, tert-butyl 3-(2-{methanesulfonyl[(2-sulfa-moylethyl)carbamoyl]meth-yl}-1,3-benzothiazol-6-yl)-1H-pyrrole-1-carboxylatc] | 7.29 | 8.55
2 | CS(=O)(=O)C(C(=O)NCCS(N)(=O)=O)c1nc2ccc(-c3cnn(CCC(F)(F)F)c3)cc2s1 (stereo not drawn) [Example B221, 2-methanesulfonyl-N-(2-sulfamoylethyl)-2-{6-[1-(3,3,3-trifluoropropyl)-1H-pyrazol-4-yl]-1,3-benzothiazol-2-yl}acetamide] | 7.11 | 6.51
3 | CS(=O)(=O)C(C(=O)NCCS(N)(=O)=O)c1nc2ccc(-c3cncs3)cc2s1 (stereo not drawn) [Example B222, 2-methanesulfonyl-N-(2-sulfamoylethyl)-2-[6-(1,3-thiazol-5-yl)-1,3-benzothiazol-2-yl]a-cetamide] | 7.91 | 7.50
4 | CN(C)C(=O)c1ccc(-c2ccc3nc(C(C(=O)NCCS(N)(=O)=O)S(=O)(=O)Cc4ccc(OC(F)(F)F)cc4)sc3c2)cc1F (stereo not drawn) [Example B229, 2-fluoro-N,N-dimethyl-4-(2-{[(2-sulfamoylethyl)car-bamoyl][4-(trifluoro-methoxy)phenyl]methane-sulfonylmethyl}-1,3-benzothiazol-6-yl)ben-zamide] | 7.53 | 6.62
5 | COCCS(=O)(=O)C(C(=O)NCc1cc(C(C)C)no1)c1nc2ccc(-c3ccccc3)cc2s1 (stereo not drawn) [Example B232, 2-(2-methoxyethane-sulfonyl)-2-(6-phenyl-1,3-benzothiazol-2-yl)-N-{[3-(propan-2-yl)-1,2-oxazol-5-yl]methyl}acetamide] | 7.34 | 9.10
6 | Cc1cc(CNC(=O)C(c2nc3ccc(-c4ccccc4)cc3s2)S(C)(=O)=O)on1 (stereo not drawn) [Example B233] | 7.50 | 8.44
7 | NS(=O)(=O)CCNC(=O)C(c1nc2ccc(-c3ccc(S(=O)(=O)NCCO)cc3)cc2s1)S(=O)(=O)Cc1ccc(F)cc1 (stereo not drawn) [Example B238, 2-[(4-fluorophenyl)methane-sulfonyl]-2-(6-{4-[(2-hydroxyethyl)sulfa-moyl]phenyl}-1,3-benzothiazol-2-yl)-N-(2-sulfamoylethyl)a-cetamide] | 8.01 | 6.63
8 | NS(=O)(=O)CCNC(=O)C(c1nc2ccc(-c3ccc(CCO)cc3)cc2s1)S(=O)(=O)Cc1ccc(F)cc1 (stereo not drawn) [Example B240, 2-[(4-fluorophenyl)methane-sulfonyl]-2-{6-[4-(2-hydroxyethyl)phenyl]-1,3-benzothiazol-2-yl}-N-(2-sulfamoylethyl)a-cetamide] | 7.59 | 7.12

Stronger by pIC50 (Endothelial lipase (EL)), values ahead:

Row | pIC50 (Endothelial lipase (EL)) | pIC50 (hepatic lipase (HL)) | Compound
9 | 8.03 | 8.14 | COCc1ccc(-c2ccc3nc(C(C(=O)NCCS(N)(=O)=O)S(=O)(=O)CCC(F)(F)F)sc3c2)cc1 (stereo not drawn) [Example B239, 2-{6-[4-(methoxymeth-yl)phenyl]-1,3-benzothiazol-2-yl}-N-(2-sulfamoyl-ethyl)-2-(3,3,3-trifluoro-propanesulfonyl)acetamide]
10 | 8.04 | 6.60 | NC(=O)c1ccc(-c2ccc3nc(C(C(=O)NCCS(N)(=O)=O)S(=O)(=O)CCC(F)(F)F)sc3c2)cc1 (stereo not drawn) [Example B228, 4-(2-{[(2-sulfamoylethyl)car-bamoyl](3,3,3-trifluoro-propanesulfonyl)methyl}-1,3-benzothiazol-6-yl)ben-zamide]
11 | 8.08 | 8.00 | CS(=O)(=O)C(C(=O)NCCS(N)(=O)=O)c1nc2ccc(-c3ccc(-c4ncco4)cc3)cc2s1 (stereo not drawn) [Example B224, 2-methanesulfonyl-2-{6-[4-(1,3-oxazol-2-yl)phen-yl]-1,3-benzothiazol-2-yl}-N-(2-sulfamoylethyl)a-cetamide]
12 | 8.19 | 6.22 | CC(C)(O)CNC(=O)c1ccc(-c2ccc3nc(C(C(=O)NCCS(N)(=O)=O)S(C)(=O)=O)sc3c2)cc1 (stereo not drawn) [Example B241, N-(2-hydroxy-2-methyl-propyl)-4-(2-{methane-sulfonyl[(2-sulfamoyl-ethyl)carbamoyl]methyl}-1,3-benzothiazol-6-yl)ben-zamide]
13 | 8.29 | 5.52 | Cn1nccc1-c1ccc2nc(C(C(=O)NCCS(N)(=O)=O)S(C)(=O)=O)sc2c1 (stereo not drawn) [Example B235, 2-methanesulfonyl-2-[6-(1-methyl-1H-pyrazol-5-yl)-1,3-benzothiazol-2-yl]-N-(2-sulfamoylethyl)a-cetamide]
14 | 8.31 | 7.81 | Cc1nnc(-c2ccc(-c3ccc4nc(C(C(=O)NCCS(N)(=O)=O)S(C)(=O)=O)sc4c3)cc2)o1 (stereo not drawn) [Example B225, 2-methanesulfonyl-2-{6-[4-(5-methyl-1,3,4-oxadiazol-2-yl)phenyl]-1,3-benzothiazol-2-yl}-N-(2-sulfamoylethyl)a-cetamide]
15 | 8.31 | 9.30 | COCCS(=O)(=O)C(C(=O)NCc1cc(C)no1)c1nc2ccc(-c3ccccc3)cc2s1 (stereo not drawn) [Example B234, 2-(2-methoxyethane-sulfonyl)-N-[(3-methyl-1,2-oxazol-5-yl)methyl]-2-(6-phenyl-1,3-benzothiazol-2-yl)a-cetamide]
16 | 8.34 | 7.43 | CN(C)C(=O)c1ccc(-c2ccc3nc(C(C(=O)NCCS(N)(=O)=O)S(=O)(=O)CCC(F)(F)F)sc3c2)cc1F (stereo not drawn) [Example B230, 2-fluoro-N,N-dimethyl-4-(2-{[(2-sulfamoylethyl)car-bamoyl](3,3,3-trifluoro-propanesulfonyl)meth-yl}-1,3-benzothiazol-6-yl)benzamide]
17 | 8.57 | 6.96 | CC(C)(O)CNC(=O)c1ccc(-c2ccc3nc(C(C(=O)NCCS(N)(=O)=O)S(=O)(=O)Cc4ccc(F)cc4)sc3c2)cc1 (stereo not drawn) [Example B242, 4-{2-[(4-fluorophenyl)meth-anesulfonyl[(2-sulfa-moylethyl)carbamoyl]meth-yl]-1,3-benzothiazol-6-yl}-N-(2-hydroxy-2-methylpropyl)benzamide]
18 | 8.92 | 8.11 | CS(=O)(=O)C(C(=O)NCCS(N)(=O)=O)c1nc2ccc(-c3ccc(-c4nnc(N)s4)cc3)cc2s1 (stereo not drawn) [Example B223, 2-{6-[4-(5-amino-1,3,4-thiadiazol-2-yl)phenyl]-1,3-benzothiazol-2-yl}-2-methanesulfonyl-N-(2-sulfamoylethyl)acetamide]
19 | 9.10 | 7.26 | CC(=O)Nc1ccc(-c2ccc3nc(C(C(=O)NCCS(N)(=O)=O)S(=O)(=O)CCC(F)(F)F)sc3c2)cc1 (stereo not drawn) [Example B236, 2-[6-(4-acetamidophenyl)-1,3-benzothiazol-2-yl]-N-(2-sulfamoylethyl)-2-(3,3,3-trifluoropropane-sulfonyl)acetamide]
20 | 9.30 | 7.13 | NS(=O)(=O)CCNC(=O)C(c1nc2ccc(-c3ccc(C(=O)NC4CC4)cc3)cc2s1)S(=O)(=O)Cc1ccc(OC(F)(F)F)cc1 (stereo not drawn) [Example B226, N-cyclopropyl-4-(2-{[(2-sulfamoylethyl)carbamoyl][4-(trifluoromethoxy)phen-yl]methanesulfonyl-methyl}-1,3-benzothiazol-6-yl)benzamide]
21 | 9.30 | 7.09 | NC(=O)c1ccc(-c2ccc3nc(C(C(=O)NCCS(N)(=O)=O)S(=O)(=O)Cc4ccc(OC(F)(F)F)cc4)sc3c2)cc1 (stereo not drawn) [Example B227, 4-(2-{[(2-sulfamoylethyl)car-bamoyl][4-(trifluoromethoxy)phen-yl]methanesulfonyl-methyl}-1,3-benzothiazol-6-yl)benzamide]
